Experiments:
Test in all cases: NCI single-dose screen (SRB)
Assay type in all cases: cell-based
[1] = test system: PC-3; conditions: Homo sapiens; Prostate Cancer PC-3; 10^−5 M; read-out: Growth inhibition percentage
Method: (§1) The methodology of the NCI anticancer screening was described in detail elsewhere (http://www.dtp.nci.nih.gov). […] Tested compounds were added to the culture at a single concentration (10^−5 M) and the cultures were incubated for 48 h. End-point determinations were made with a protein binding dye, SRB. Results for each tested compound were reported as the percentage growth of the treated cells when compared to the untreated control cells. The percentage growth was evaluated spectrophotometrically versus controls not treated with test agents. All experiments were repeated three times (Table 1).
(§2) Briefly, the protocol was performed on 60 human tumor cell lines derived from different nine neoplastic diseases. […] If the results obtained met selection criteria, then the compound was tested again on all 60 cell lines in 5× 10-fold dilutions with the top dose being 10^−4 M or 150 μg/mL. Detailed methods are described in the Supplementary Materials related to this article.
(§3) on their site (http://www.dtp.nci.nih.gov). But briefly, the protocol performed at sixty human
(§4) National Cancer Institute, Bethesda, USA. If the results obtained meet selection criteria, then the
(§5) 10-4 molar or 150 μg/mL. […]

[2] = test system: UACC-257; conditions: Homo sapiens; Melanoma UACC-257; 10^−5 M; read-out: Growth inhibition percentage
Method: as §1, §2, §3, §4, §5

[3] = test system: A498; conditions: Homo sapiens; Renal Cancer A498; 10^−5 M; read-out: Growth inhibition percentage
Method: as §1, §2, §3, §4, §5

[4] = test system: MCF7; conditions: Homo sapiens; Breast Cancer MCF7; 10^−5 M; read-out: Growth inhibition percentage
Method: as §1, §2, §3, §4, §5

[5] = test system: HCT-15; conditions: Homo sapiens; Colon Cancer HCT-15; 10^−5 M; read-out: Growth inhibition percentage
Method: as §1, §2, §3, §4, §5

[6] = test system: SK-OV-3; conditions: Homo sapiens; Ovarian Cancer SK-OV-3; 10^−5 M; read-out: Growth inhibition percentage
Method: as §1, §2, §3, §4, §5

[7] = test system: KM12; conditions: Homo sapiens; Colon Cancer KM12; 10^−5 M; read-out: Growth inhibition percentage
Method: as §1, §2, §3, §4, §5

[8] = test system: OVCAR-4; conditions: Homo sapiens; Ovarian Cancer OVCAR-4; 10^−5 M; read-out: Growth inhibition percentage
Method: as §1, §2, §3, §4, §5

[9] = test system: RPMI-8226; conditions: Homo sapiens; Leukemia RPMI-8226; 10^−5 M; read-out: Growth inhibition percentage
Method: as §1, §2, §3, §4, §5

[10] = test system: T-47D; conditions: Homo sapiens, T47D; Breast Cancer T-47D; 10^−5 M; read-out: Growth inhibition percentage
Method: as §1, §2, §3, §4, §5

[11] = test system: CAKI-1; conditions: Homo sapiens; Renal Cancer CAKI-1; 10^−5 M; read-out: Growth inhibition percentage
Method: as §1, §2, §3, §4, §5

[12] = test system: SF-539; conditions: Homo sapiens; CNS Cancer SF-539; 10^−5 M; read-out: Growth inhibition percentage
Method: as §1, §2, §3, §4, §5

[13] = test system: NCI-H522; conditions: Homo sapiens; Non-Small-Cell Lung Cancer NCI-H522; 10^−5 M; read-out: Growth inhibition percentage
Method: as §1, §2, §3, §4, §5

[14] = test system: SF-268; conditions: Homo sapiens; CNS Cancer SF-268; 10^−5 M; read-out: Growth inhibition percentage
Method: as §1, §2, §3, §4, §5

[15] = test system: SF-295; conditions: Homo sapiens; CNS Cancer SF-295; 10^−5 M; read-out: Growth inhibition percentage
Method: as §1, §2, §3, §4, §5

[16] = test system: 786-0; conditions: Homo sapiens; Renal Cancer 786-0; 10^−5 M; read-out: Growth inhibition percentage
Method: as §1, §2, §3, §4, §5

[17] = test system: M14; conditions: Homo sapiens; Melanoma M14; 10^−5 M; read-out: Growth inhibition percentage
Method: as §1, §2, §3, §4, §5

[18] = test system: HOP-92; conditions: Homo sapiens; Non-Small-Cell Lung Cancer HOP-92; 10^−5 M; read-out: Growth inhibition percentage
Method: as §1, §2, §3, §4, §5

[19] = test system: MOLT-4; conditions: Homo sapiens; Leukemia MOLT-4; 10^−5 M; read-out: Growth inhibition percentage
Method: as §1, §2, §3, §4, §5

[20] = test system: OVCAR-3; conditions: Homo sapiens; Ovarian Cancer OVCAR-3; 10^−5 M; read-out: Growth inhibition percentage
Method: as §1, §2, §3, §4, §5

[21] = test system: MDA-MB-231/ATCC; conditions: Homo sapiens; Breast Cancer MDA-MB-231/ATCC; 10^−5 M; read-out: Growth inhibition percentage
Method: as §1, §2, §3, §4, §5

[22] = test system: TK-10; conditions: Homo sapiens; Renal Cancer TK-10; 10^−5 M; read-out: Growth inhibition percentage
Method: as §1, §2, §3, §4, §5

[23] = test system: IGROV1; conditions: Homo sapiens, IGROV-1; Ovarian Cancer IGROV1; 10^−5 M; read-out: Growth inhibition percentage
Method: as §1, §2, §3, §4, §5

[24] = test system: MALME-3M; conditions: Homo sapiens; Melanoma MALME-3M; 10^−5 M; read-out: Growth inhibition percentage
Method: as §1, §2, §3, §4, §5

[25] = test system: K-562; conditions: Homo sapiens, K562; Leukemia K-562; 10^−5 M; read-out: Growth inhibition percentage
Method: as §1, §2, §3, §4, §5

[26] = test system: UO-31; conditions: Homo sapiens; Renal Cancer UO-31; 10^−5 M; read-out: Growth inhibition percentage
Method: as §1, §2, §3, §4, §5

[27] = test system: NCI/ADR-RES; conditions: Homo sapiens; Ovarian Cancer NCI/ADR-RES; 10^−5 M; read-out: Growth inhibition percentage
Method: as §1, §2, §3, §4, §5

[28] = test system: HT29; conditions: Homo sapiens, HT-29; Colon Cancer HT29; 10^−5 M; read-out: Growth inhibition percentage
Method: as §1, §2, §3, §4, §5

[29] = test system: NCI-H322M; conditions: Homo sapiens; Non-Small-Cell Lung Cancer NCI-H322M; 10^−5 M; read-out: Growth inhibition percentage
Method: as §1, §2, §3, §4, §5

[30] = test system: SN12C; conditions: Homo sapiens; Renal Cancer SN12C; 10^−5 M; read-out: Growth inhibition percentage
Method: as §1, §2, §3, §4, §5

| SMILES | inhibition at 10 µM [1] [%] | inhibition at 10 µM [2] [%] | inhibition at 10 µM [3] [%] | inhibition at 10 µM [4] [%] | inhibition at 10 µM [5] [%] | inhibition at 10 µM [6] [%] | inhibition at 10 µM [7] [%] | inhibition at 10 µM [8] [%] | inhibition at 10 µM [9] [%] | inhibition at 10 µM [10] [%] | inhibition at 10 µM [11] [%] | inhibition at 10 µM [12] [%] | inhibition at 10 µM [13] [%] | inhibition at 10 µM [14] [%] | inhibition at 10 µM [15] [%] | inhibition at 10 µM [16] [%] | inhibition at 10 µM [17] [%] | inhibition at 10 µM [18] [%] | inhibition at 10 µM [19] [%] | inhibition at 10 µM [20] [%] | further results |
| --- | --- | --- | --- | --- | --- | --- | --- | --- | --- | --- | --- | --- | --- | --- | --- | --- | --- | --- | --- | --- | --- |
| COC(=O)C=C1SC(=Nc2cccnc2)N(NC(=O)c2cc3ccc2CCc2ccc(cc2)CC3)C1=O [Compound 3c, Methyl (E)-2-((E)-3-[2.2]paracyclophanyl)amido-4-oxo-2-(pyridin-3-ylimino)-thiazolidin-5-ylidene)acetate] | 18.2 | 0.83 | 3.59 | 26.8 | 11.8 | 0 | 7.32 | 7.76 | 83 | 31.1 | 4.78 | 11.6 | 17.7 | 3.08 | 5.63 | 8.52 | 7.99 | 8.14 | 21.9 | 4.51 | inhibition at 10 µM [21]: 10.6%; inhibition at 10 µM [22]: 0%; inhibition at 10 µM [23]: 15.4%; inhibition at 10 µM [24]: 0%; inhibition at 10 µM [25]: 20.7%; inhibition at 10 µM [26]: 21.9%; inhibition at 10 µM [27]: 4.7%; inhibition at 10 µM [28]: 7.71%; inhibition at 10 µM [29]: 1.72%; inhibition at 10 µM [30]: 8.87% |
| C=CCN1C(=O)C(=CC(=O)OC)SC1=NNC(=O)c1cc2ccc1CCc1ccc(cc1)CC2 [Compound 3d] | 51.6 | 8.89 | 12.1 | 48.5 | 33.1 | 0 | 18.4 | 2.93 | 109 | 25 | 5.23 | 0.33 | 39.2 | 0 | 6.42 | 8.77 | 21.1 | 18.6 | 64.5 | 13.6 | inhibition at 10 µM [21]: 2.27%; inhibition at 10 µM [22]: 0%; inhibition at 10 µM [23]: 10.8%; inhibition at 10 µM [24]: 7.56%; inhibition at 10 µM [25]: 48.1%; inhibition at 10 µM [26]: 24.6%; inhibition at 10 µM [27]: 10.5%; inhibition at 10 µM [28]: 54%; inhibition at 10 µM [29]: 2.94%; inhibition at 10 µM [30]: 13.1% |
